Earlier results, collected in US20120022114A1, “Low-dose, non-irritating nicotine nasal composition to reduce the desire to smoke” (Laboratorio Pablo Cassara S.R.L., priority 2009, published 2012).

Conditions: when inhaled; on average

For `CN1CCCC1c1cccnc1` (stereo not shown) [nicotine, Nicotine], the “Time for the substance to reach the brain” value is listed as “about seven”.
